Assay [1] has as its system UCP-1 mRNA in NIH-3T3-L1 cells. The assay can be described thus: UCP-1 mRNA expression level in NIH-3T3-L1 cells (real-time PCR). The format is cell-based, mouse. The note with it: 10^−5M, 24 hours, control (DMSO) 1.0. As for the experimental part: (§1) 1) Extraction of Total RNA
(§2) After respectively culturing the LNCaP cells and NIH-3T3-L1 cells co-transfected in 1) to 3) above in 6-well plates, the cells were cultured for 24 hours in EMEM or RPMI 1640 containing 10% fetal calf serum treated with dextran-charcoal and a test compound (dissolved in a small amount of DMSO). Subsequently, total RNA was respectively extracted using Isogen (Wako Pure Chemical Industries).
(§3) 5 μg aliquots of each total RNA obtained in 1) above were reverse-transcribed to first strand cDNA using a Superscript III Kit (Invitrogen) and brought to a final volume of 20 μL. Real-time PCR was carried out using LightCycler FastStart DNA Master SYBR Green I (Roche Diagnostic) in order to quantify expression of PSA mRNA in LNCaP cells and UCP-1 mRNA in NIH-3T3-L1 cells. PCR was carried out under the following conditions in 20 μL of reaction mixture: 50 cycles consisting of denaturing for 3 seconds at 95° C., annealing for 10 seconds at 60° C. and elongating for 25 seconds at 72° C. β-actin mRNA was also simultaneously amplified for use as an internal standard. Real-time PCR value for each transcription product were calculated as a relative ratio to β-actin.
On the technique in general: In qPCR the cycle at which signal appears reflects the starting amount.

In the next assay the test system is PSA mRNA in LNCaP cells. The assay can be described thus: PSA mRNA expression level in LNCaP cells (real-time PCR). The format is cell-based, human. To be noted: 10^−5M, 24 hours, control (DMSO) 1.0. As for the experimental part: as §1, §2, §3
In another assay the test system is PSA promoter. The assay can be described thus: PSA promoter-luciferase activity in LNCaP cells (dual-luciferase reporter). Format: cell-based, human. The note with it: 10^−5M, 24 hours, control (DMSO) 1.0. As for the experimental part:
Plasmid pCMV-hAR was constructed based on a method previously reported by the inventors of the present invention (J. Biol. Chem., 282, 7329-7338). In addition, reporter plasmids consisting of PGL3-PSA (human) and PGL3-UCP-1 (mouse) were also constructed based on a method previously reported by the inventors of the present invention (Diabetes, 54, 1000-1008). Furthermore, pRL-SV40 was acquired commercially.
NIH-3T30-L1 mouse preadipocytes were cultured in Dulbecco's modified Eagle's medium (Sera Laboratories) containing 10% fetal calf serum. In addition, cells of human prostate cancer cell line LNCap were cultured in RPMI 1640 medium (Sigma) containing 10% fetal calf serum. Furthermore, these two types of cell lines were obtained from the American Type Culture Collection (Manassas).
The NIH-3T3-L1 cells of 2) above were co-transfected with pCMV-hAR, pRL-SV40 and PGL3-UCP-1 (mouse) in a 24-well plate using an Effectene Transfection Kit (Qiagen) and a Fugene HD Kit (Roche Diagnostics). In addition, the LNCaP cells of 2) above were similarly co-transfected with pCMV-hAR, pRL-SV40 and PGL3-PSA (human).
4) Measurement of Effect on PSA Promoter-Luciferase Activity in LNCaP Cells
The LNCaP cells co-transfected in 3) above were cultured for 24 hours in DMEM or RPMI 1640 containing 10% fetal calf serum treated with dextran-charcoal and a test compound (dissolved in a small amount of DMSO) 24 hours after transfection. Subsequently, the activities of firefly luciferase and Renilla luciferase were assayed in a 24-well plate using the Dual-Luciferase Reporter Assay System (Promega) in accordance with the protocol of Minilumat LB9507 (Berthold Technologies). Furthermore, the value of firefly luciferase activity were normalized based on the internal Renilla control, and were presented as relative luciferase activity.
(In a reporter assay the amount or activity of a reporter protein is the signal.)

The target in the next assay is T1, AR (Homo sapiens, UniProt P10275).
T1 sequence (P10275 1-920): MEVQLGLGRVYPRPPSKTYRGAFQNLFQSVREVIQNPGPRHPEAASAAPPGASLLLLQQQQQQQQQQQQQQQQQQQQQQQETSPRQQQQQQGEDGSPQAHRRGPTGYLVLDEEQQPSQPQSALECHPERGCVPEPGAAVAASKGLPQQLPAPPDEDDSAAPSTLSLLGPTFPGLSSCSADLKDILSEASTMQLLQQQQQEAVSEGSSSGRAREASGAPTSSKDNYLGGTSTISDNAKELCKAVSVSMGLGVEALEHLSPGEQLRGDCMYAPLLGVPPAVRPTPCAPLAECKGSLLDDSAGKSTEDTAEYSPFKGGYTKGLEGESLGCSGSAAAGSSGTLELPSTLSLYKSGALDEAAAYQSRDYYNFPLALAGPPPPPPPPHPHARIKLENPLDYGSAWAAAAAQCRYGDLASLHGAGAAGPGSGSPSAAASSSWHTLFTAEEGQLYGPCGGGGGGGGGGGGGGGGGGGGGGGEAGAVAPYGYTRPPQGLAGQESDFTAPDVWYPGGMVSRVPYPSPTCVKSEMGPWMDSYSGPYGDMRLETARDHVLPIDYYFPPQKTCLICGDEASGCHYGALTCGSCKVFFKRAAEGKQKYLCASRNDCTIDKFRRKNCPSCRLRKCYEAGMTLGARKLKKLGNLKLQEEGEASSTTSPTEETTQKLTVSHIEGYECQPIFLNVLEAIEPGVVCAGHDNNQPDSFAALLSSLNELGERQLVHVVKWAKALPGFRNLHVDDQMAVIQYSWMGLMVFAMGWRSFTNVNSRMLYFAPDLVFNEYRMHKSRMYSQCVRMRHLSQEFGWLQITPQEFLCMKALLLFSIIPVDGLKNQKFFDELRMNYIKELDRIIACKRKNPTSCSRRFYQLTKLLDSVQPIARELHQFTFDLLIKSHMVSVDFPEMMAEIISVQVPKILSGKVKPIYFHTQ
The note with it: previous studies of the inventors; cited from earlier work.

Consider `CO[C@H]1CC[C@@]2(C)C(=CCC3C4CCOC[C@@]4(C)CCC32)C1` (stereo partly drawn) [Compound of formula (IIIa), 16a-homo-16a-oxestra-5-ene-3β-methoxide], for which the “UCP-1 mRNA (relative ratio to β-actin mRNA)” value in assay [1] amounted to 1.8. In addition, the “PSA mRNA (relative ratio to β-actin mRNA)” value in the assay on PSA mRNA in LNCaP cells was found to be 0.8. Besides, the “Value of luciferase transcription activity (PSA promoter, relative luciferase activity)” value with PSA promoter was 0.8.

For `CC(=O)O[C@H]1CC[C@]2(C)C3CC[C@]45C(=O)O[C@H](C)[C@H]4CCC5C3CC[C@H]2C1` (stereo partly shown) [Compound of formula (IIa)], the “UCP-1 mRNA (relative ratio to β-actin mRNA)” value in assay [1] is reported as 1.4. In addition, the “PSA mRNA (relative ratio to β-actin mRNA)” value in the assay with PSA mRNA in LNCaP cells is on record as 0.9. In addition, the “Value of luciferase transcription activity (PSA promoter, relative luciferase activity)” value with PSA promoter is given as 0.8.

In the case of `CC(C)(O)C(=O)Nc1ccc([N+](=O)[O-])c(C(F)(F)F)c1` [hydroxyflutamide], the “Formation of subnuclear AR foci (dots) (in words)” value at AR is recorded as “do not form foci (dots)”.

Source of the values: US8623909B2, “Prophylactic/therapeutic agents for lifestyle-related diseases” (priority 2008, dated 2014).
